The values below come from patent US11142515B2, “Pyrazolyl-ureas as kinase inhibitors” (RESPIVERT LIMITED, priority 2014, dated 2021).

The target of series [1] is T1, Syk (Homo sapiens, UniProt P43405).
T1 construct: purchased Life Technologies
Kind of series: Syk enzyme inhibition (Z-LYTE FRET). It is filed as biochemical. The following applies: Table 2A. In a few lines: (§1)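 Z-LYTE readout: coumarin-to-fluorescein ratio after 1 h protease cleavage of unphosphorylated peptide. Kinase reactions ran 1 h at RT with ATP stock at 800 μM (c-Src) or 60 μM (Hck, Syk), following 2 h compound preincubation over 0.0012–40 μg/mL; enzyme stocks 1000/1400/2000 ng/mL.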

Series [2] relates to d-U937 cells. Kind of series: Cell viability: MTT assay in differentiated U937 cells. The following applies: 10 μg/mL. Type of series: cell-based, human. A digest of the protocol:
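Viability loss, calculated against 0.5% DMSO vehicle (gains reported negative), was measured by MTT reduction (1 h) and A550 after DMSO solubilisation. Compound exposure of d-U937 cells was 10 μg/mL final, for 24 h in 10% FCS or 4 h in 5% FCS RPMI1640.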

For series [3], the target named is T2, c-Src (Homo sapiens, UniProt P12931).
T2 construct: purchased Life Technologies
T2 sequence (P12931 whole entry): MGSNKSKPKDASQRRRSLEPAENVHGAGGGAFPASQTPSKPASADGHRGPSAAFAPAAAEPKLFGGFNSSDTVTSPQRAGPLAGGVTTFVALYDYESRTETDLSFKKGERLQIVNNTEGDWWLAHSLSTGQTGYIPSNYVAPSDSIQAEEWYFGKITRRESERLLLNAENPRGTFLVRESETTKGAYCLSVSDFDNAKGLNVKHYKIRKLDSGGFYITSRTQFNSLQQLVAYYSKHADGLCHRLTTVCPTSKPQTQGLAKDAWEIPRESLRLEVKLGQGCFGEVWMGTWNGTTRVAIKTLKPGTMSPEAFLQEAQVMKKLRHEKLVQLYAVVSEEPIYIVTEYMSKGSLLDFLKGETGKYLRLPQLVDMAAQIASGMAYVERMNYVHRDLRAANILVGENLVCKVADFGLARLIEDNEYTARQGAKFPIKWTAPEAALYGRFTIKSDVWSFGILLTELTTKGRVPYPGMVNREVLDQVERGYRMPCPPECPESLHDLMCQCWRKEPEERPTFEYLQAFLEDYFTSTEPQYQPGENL
Nature of the series: c-Src enzyme inhibition (Z-LYTE FRET). It is filed as biochemical. The following applies: Table 2A. In a few lines: as §1

The target of series [4] is T3, p38 MAPKα isoform (MAPK14) (Homo sapiens, UniProt Q16539).
T3 construct: purchased Life Technologies
T3 sequence (Q16539 whole entry, canonical isoform): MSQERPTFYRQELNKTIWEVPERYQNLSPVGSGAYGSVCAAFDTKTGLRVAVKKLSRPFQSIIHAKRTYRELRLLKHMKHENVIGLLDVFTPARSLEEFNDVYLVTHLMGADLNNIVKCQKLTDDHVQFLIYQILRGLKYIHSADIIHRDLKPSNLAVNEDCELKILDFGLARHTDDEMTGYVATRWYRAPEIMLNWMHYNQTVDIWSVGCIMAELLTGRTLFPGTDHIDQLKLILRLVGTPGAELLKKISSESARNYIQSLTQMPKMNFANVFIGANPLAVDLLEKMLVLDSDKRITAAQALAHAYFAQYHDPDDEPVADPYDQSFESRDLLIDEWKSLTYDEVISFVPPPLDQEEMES
Nature of the series: p38 MAPKα enzyme inhibition (Z-LYTE FRET). It is filed as biochemical. The settings on record: Table 2A; read-out: IC50 Values for Enzyme Inhibition p38 MAPKα. In a few lines:
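Activity was measured indirectly as phosphorylation of a MAPKAP-K2-derived FRET peptide. Enzyme (added at 40 ng/mL) was preincubated 2 h at RT with compound (added solutions 40–0.0012 μg/mL).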

The target of series [5] is T4, GSK 3α enzyme isoform (Homo sapiens, UniProt P49840).
T4 construct: purchased Life Technologies
T4 sequence (P49840 whole entry, canonical isoform): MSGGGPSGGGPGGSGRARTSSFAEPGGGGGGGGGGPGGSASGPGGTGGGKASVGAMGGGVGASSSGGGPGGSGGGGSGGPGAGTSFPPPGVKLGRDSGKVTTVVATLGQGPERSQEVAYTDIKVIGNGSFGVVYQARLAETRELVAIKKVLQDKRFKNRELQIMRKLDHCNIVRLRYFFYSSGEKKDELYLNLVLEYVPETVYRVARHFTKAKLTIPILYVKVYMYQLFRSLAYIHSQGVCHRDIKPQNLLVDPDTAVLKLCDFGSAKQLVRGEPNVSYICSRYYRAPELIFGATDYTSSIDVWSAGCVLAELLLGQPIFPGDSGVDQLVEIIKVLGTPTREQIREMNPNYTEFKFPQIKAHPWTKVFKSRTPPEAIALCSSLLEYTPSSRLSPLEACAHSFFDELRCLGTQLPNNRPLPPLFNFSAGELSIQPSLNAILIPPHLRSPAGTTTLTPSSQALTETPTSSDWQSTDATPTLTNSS
Nature of the series: GSK 3α enzyme inhibition (Z-LYTE FRET). Type of series: biochemical. The following applies: Table 2A; read-out: IC50 Values for Enzyme Inhibition GSK3α. A digest of the protocol:
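Z-LYTE FRET kinase assay: GSK3α protein (500 ng/mL stock) preincubated with compound (0.0012–40 μg/mL stocks) for 2 h at RT. FRET peptide (8 μM stock) and ATP (40 μM stock) added for 1 h at RT, then protease development for 1 h. Phosphorylation taken from the coumarin/fluorescein emission ratio.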

Series [6] concerns TNFα release in d-U937 cells. Nature of the series: LPS-induced TNFα release in d-U937 cells. Also: relative to 10 µg/mL BIRB-796. It is filed as cell-based. The settings on record: Homo sapiens, dU937; read-out: LPS Induced Release TNFα REC50 (dU937). A digest of the protocol:
(§2)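 PMA-differentiated U937 (100-200 ng/mL, 48-72 h); cpd pre-inc 2 h; LPS 0.1 μg/mL (E. coli O111:B4), 4 h. Supernatant TNFα/IL-8 by sandwich ELISA. % inhibition vs vehicle; REC50 from curve.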

The test system of series [7] is IL-8 release in d-U937 cells. Kind of series: LPS-induced IL-8 release in d-U937 cells. The following applies: Homo sapiens, dU937, LPS 0.1 μg/mL 4 h. It is filed as cell-based. In a few lines: as §2

Where only a bound is given, the exact number is not on record here.

In general, IC50 refers to the concentration needed to halve the response being measured. Take `Cc1ccc(-n2nc(C(C)(C)C)cc2NC(=O)Nc2ccc(OCc3ccnc(Nc4cncc(CC(N)=O)n4)c3)c3ccccc23)cc1` [Example 32]: the IC50 in series [1] is over 15200 nM; in series [3], 25 nM; in series [4] it was 3 nM; in series [5], 1320 nM; in series [7], 15 nM. Further, in series [2], the “MTT Assay Cell viability at time point indicated in d-U937 Cells, 4 h” value (“MTT Assay Cell viability … in d-U937 Cells, 4 h” below) was “− (−ve and +ve indicate the value is below and above, respectively, the no significant effect threshold defined as 30% inhibition at 10 μg/mL at the time point indicated)”. In addition, the “MTT Assay Cell viability at time point indicated in d-U937 Cells, 24 h” value (from here on “MTT Assay Cell viability … 24 h”) in series [2] was “− (−ve and +ve indicate the value is below and above, respectively, the no significant effect threshold defined as 30% inhibition at 10 μg/mL at the time point indicated)”. Further, the EC50 in series [6] came out at 13 nM.

As to `CNC(=O)Cc1cnc(Nc2cc(COc3ccc(NC(=O)Nc4cc(C(C)(C)C)nn4-c4ccc(C)cc4)c4ccccc34)ccn2)cn1` [Example 33], the IC50 in series [1] was over 14900 nM; in series [3], 35 nM; in series [4], 3 nM; in series [5], 5960 nM; in series [7] it was 42.4 nM. In addition, in series [2], the “MTT Assay Cell viability … in d-U937 Cells, 4 h” value is “− (−ve and +ve indicate the value is below and above, respectively, the no significant effect threshold defined as 30% inhibition at 10 μg/mL at the time point indicated)”. The “MTT Assay Cell viability … 24 h” value in series [2] is “− (−ve and +ve indicate the value is below and above, respectively, the no significant effect threshold defined as 30% inhibition at 10 μg/mL at the time point indicated)”. Also, in series [6], the EC50 amounted to 2.6 nM.

For `CC(C)(C)c1cc(NC(=O)Nc2ccc(OCc3ccnc(Nc4cncc(C5CC5)n4)c3)c3ccccc23)n(-c2ccc(O)cc2)n1` [Example 34], the half-inhibitory concentration (IC50) in series [1] came to 4260 nM; in series [3], 18 nM; in series [4] it was 13 nM; in series [5], 1200 nM; in series [7], 8.3 nM. In series [2], the “MTT Assay Cell viability … in d-U937 Cells, 4 h” value was “− (−ve and +ve indicate the value is below and above, respectively, the no significant effect threshold defined as 30% inhibition at 10 μg/mL at the time point indicated)”. Also, the “MTT Assay Cell viability … 24 h” value in series [2] was “− (−ve and +ve indicate the value is below and above, respectively, the no significant effect threshold defined as 30% inhibition at 10 μg/mL at the time point indicated)”. In addition, in series [6], the EC50 was found to be 5.4 nM.

Turning to `Cc1ccc(-n2nc(C(C)(C)C)cc2NC(=O)Nc2ccc(OCc3ccnc(Nc4cnc(C(=O)N5CCOCC5)cn4)c3)c3ccccc23)cc1` [Example 35], the half-maximal inhibitory concentration (IC50) in series [1] was over 14000 nM; in series [3], 51 nM; in series [4], 9 nM; in series [5], 3430 nM; in series [7], 102 nM. In addition, the “MTT Assay Cell viability … in d-U937 Cells, 4 h” value in series [2] was “− (−ve and +ve indicate the value is below and above, respectively, the no significant effect threshold defined as 30% inhibition at 10 μg/mL at the time point indicated)”. Moreover, the “MTT Assay Cell viability … 24 h” value in series [2] was “− (−ve and +ve indicate the value is below and above, respectively, the no significant effect threshold defined as 30% inhibition at 10 μg/mL at the time point indicated)”. For the same compound, the EC50 in series [6] came to 12.1 nM.

Regarding `Cc1ccc(-n2nc(C(C)(C)C)cc2NC(=O)Nc2ccc(OCc3ccnc(Nc4cnc(C(=O)N5CCCC5)cn4)c3)c3ccccc23)cc1` [Example 36], the IC50 in series [1] was over 14400 nM; in series [3] it was 61 nM; in series [4], 19 nM; in series [5] it was over 13800 nM; in series [7], 2.8 nM. The “MTT Assay Cell viability … in d-U937 Cells, 4 h” value in series [2] was “− (−ve and +ve indicate the value is below and above, respectively, the no significant effect threshold defined as 30% inhibition at 10 μg/mL at the time point indicated)”. In series [2], the “MTT Assay Cell viability … 24 h” value was “− (−ve and +ve indicate the value is below and above, respectively, the no significant effect threshold defined as 30% inhibition at 10 μg/mL at the time point indicated)”. Moreover, the EC50 in series [6] was determined as 1.6 nM.

On to `CCc1cnc(Nc2cc(COc3ccc(NC(=O)Nc4cc(C(C)(C)C)nn4-c4ccc(C)cc4)c4ccccc34)ccn2)cn1` [Example 37], for which the IC50 in series [1] is over 16000 nM; in series [3] it was 512 nM; in series [4], 24 nM; in series [5], over 10000 nM; in series [7] it was 19.3 nM. Also, the “MTT Assay Cell viability … in d-U937 Cells, 4 h” value in series [2] is “− (−ve and +ve indicate the value is below and above, respectively, the no significant effect threshold defined as 30% inhibition at 10 μg/mL at the time point indicated)”. The “MTT Assay Cell viability … 24 h” value in series [2] is “− (−ve and +ve indicate the value is below and above, respectively, the no significant effect threshold defined as 30% inhibition at 10 μg/mL at the time point indicated)”. Further, in series [6], the EC50 is 14.3 nM.

In the case of `COc1ccc(-n2nc(C(C)(C)C)cc2NC(=O)Nc2ccc(OCc3ccnc(Nc4cnccn4)c3)c3ccccc23)cc1` [Example 38], the IC50 in series [1] is over 16300 nM; in series [3] it was 153 nM; in series [4], 14 nM; in series [5], 5990 nM; in series [7] it was 9.6 nM. In addition, in series [2], the “MTT Assay Cell viability … in d-U937 Cells, 4 h” value is “− (−ve and +ve indicate the value is below and above, respectively, the no significant effect threshold defined as 30% inhibition at 10 μg/mL at the time point indicated)”. Also, the “MTT Assay Cell viability … 24 h” value in series [2] was “− (−ve and +ve indicate the value is below and above, respectively, the no significant effect threshold defined as 30% inhibition at 10 μg/mL at the time point indicated)”. For the same compound, the EC50 in series [6] was found to be 2.7 nM.

Consider `COc1ccc(-n2nc(C(C)(C)C)cc2NC(=O)Nc2ccc(OCc3ccnc(Nc4cnccn4)c3)c3ccccc23)cc1C` [Example 39], for which the IC50 was over 15900 nM in series [1]; 82 nM in series [3]; 18 nM in series [4]; over 15900 nM in series [5]; 12.8 nM in series [7]. Besides, in series [2], the “MTT Assay Cell viability … in d-U937 Cells, 4 h” value was “− (−ve and +ve indicate the value is below and above, respectively, the no significant effect threshold defined as 30% inhibition at 10 μg/mL at the time point indicated)”. In series [2], the “MTT Assay Cell viability … 24 h” value was “− (−ve and +ve indicate the value is below and above, respectively, the no significant effect threshold defined as 30% inhibition at 10 μg/mL at the time point indicated)”. In addition, in series [6], the EC50 is 3.4 nM.

On to `Cc1cccc(-n2nc(C(C)(C)C)cc2NC(=O)Nc2ccc(OCc3ccnc(Nc4cnccn4)c3)c3ccccc23)c1` [Example 40], for which the IC50 was over 16700 nM in series [1]; 85 nM in series [3]; 11 nM in series [4]; 8780 nM in series [5]; 11.7 nM in series [7]. Further, the “MTT Assay Cell viability … in d-U937 Cells, 4 h” value in series [2] is “− (−ve and +ve indicate the value is below and above, respectively, the no significant effect threshold defined as 30% inhibition at 10 μg/mL at the time point indicated)”. In series [2], the “MTT Assay Cell viability … 24 h” value was “− (−ve and +ve indicate the value is below and above, respectively, the no significant effect threshold defined as 30% inhibition at 10 μg/mL at the time point indicated)”. Further, the EC50 in series [6] turned out to be 3 nM.

On to `CC(C)c1ccc(-n2nc(C(C)(C)C)cc2NC(=O)Nc2ccc(OCc3ccnc(Nc4cnccn4)c3)c3ccccc23)cc1` [Example 41], for which the IC50 in series [1] was 6130 nM; in series [3] it was 11000 nM; in series [4], 189 nM; in series [5], 3570 nM; in series [7], 43.8 nM. For the same compound, the “MTT Assay Cell viability … in d-U937 Cells, 4 h” value in series [2] was “− (−ve and +ve indicate the value is below and above, respectively, the no significant effect threshold defined as 30% inhibition at 10 μg/mL at the time point indicated)”. In addition, the “MTT Assay Cell viability … 24 h” value in series [2] was “− (−ve and +ve indicate the value is below and above, respectively, the no significant effect threshold defined as 30% inhibition at 10 μg/mL at the time point indicated)”. Besides, the EC50 in series [6] is 3 nM.
